{"source": "patent US20100016250A1", "about": "“TOLL-LIKE RECEPTOR 9 AGONISTS” (KYOWA HAKKO KIRIN CO., LTD., priority 2006, published 2010)", "key": {"NF-κB": {"tested_on": "NF-κB", "experiment": "Promoting effect on NF-κB promoter-dependent transcriptional activity (luciferase reporter)", "assay_type": "cell-based, human", "conditions": "BGERKB5 cells (Namalwa KJM-1 with pIF-luc), 5 hours incubation; FIGS. 2 and 3", "method": "For the purpose of constructing an evaluation system for determination of NF-κB activity, the following stable transformant cell line was used. NF-κB luciferase reporter plasmid pIF-luc (containing a hygromycin resistant gene expression unit) introduced into cells was prepared by the method described in Japanese Published Unexamined Patent Application No. 169479/00. The plasmid was introduced into a human B-cell line, Namalwa (KJM-1) [Cytotechnology, Vol. 1, p. 151 (1988)], followed by culturing with addition of 0.3 mg/mL hygromycin B to select hygromycin-resistant cells. Among the selected hygromycin-resistant cells, a cell line with which enhancement of luciferase activity by TNF-α (10 ng/mL) stimulation was confirmed (hereinafter referred to as BGERKB5 cells) was used in the following test.\nThe BGERKB5 cells were suspended in RPMI1640·ITPSG medium having the following composition at a concentration of 1×10^6 cells/mL (hereinafter referred to as the BGERKB5 cell suspension). A test compound was dissolved in phosphate buffer (pH 5) and diluted to a desired concentration with RPMI1640·ITPSG medium to prepare an aqueous solution.\nTo RPMI1640 medium (Nissui Pharmaceutical Co., Ltd.) were added the following substances at the following concentration or ratio based on the medium (the resulting medium is hereinafter referred to as RPMI1640·ITPSG medium)."}, "CD40": {"tested_on": "CD40", "conditions": "BGERKB5 cells, 50 nmol/L, 12 hours", "method": "(§1) Flow cytometry analysis of CD40, CD80, CD86, etc., which are co-stimulating molecules important for the activation of lymphocytes, can be carried out in the following manner.\n(§2) The BGERKB5 cell suspension having a concentration of 1.1×10^6 cells/mL obtained in Test Example 1 (90 μL) was put into wells of a 96-well plate containing an aqueous solution of a test compound prepared according to the method described in Test Example 1 (10 μL) (final concentration: 50 nmol/L), followed by incubation in a CO2 incubator at 37° C. for 12 hours (test compound group). As a control test, a control group without addition of a test compound was also prepared.\n(§3) The following experiments were carried out at a temperature not more than 4° C. The cells were washed twice with 200 μL of phosphate buffer (PBS) containing 1% bovine serum albumin (Fraction V, Sigma) and 0.05% sodium azide, followed by replacement with the same buffer (100 μL). A phycoerythrin-labeled mouse anti-human CD40 monoclonal antibody solution (BD Biosciences), a phycoerythrin-labeled mouse anti-human CD80 monoclonal antibody solution (BD Biosciences) or a phycoerythrin-labeled mouse anti-human CD86 monoclonal antibody solution (BD Biosciences) (2 μL) was added to the cells, and after stirring, the cells were allowed to stand in the dark for 50 minutes.\n(§4) The cells were washed twice with 200 μL of phosphate buffer (PBS) containing 1% bovine serum albumin (Fraction V, Sigma) and 0.05% sodium azide, followed by replacement with the same buffer (500 μL).\n(§5) The cell count was determined using EPICS XL-MCL (Beckman Coulter, Inc., excitation wavelength 488 nm, argon laser) as a flow cytometer and a positive cell ratio was calculated. As a measurement software, System 2 version 3.0 (Beckman Coulter, Inc.) was used."}, "CD80": {"tested_on": "CD80", "conditions": "BGERKB5 cells, 50 nmol/L, 12 hours", "method": "as §1, §2, §3, §4, §5"}, "CD86": {"tested_on": "CD86", "conditions": "BGERKB5 cells, 50 nmol/L, 12 hours", "method": "as §1, §2, §3, §4, §5"}, "IP-10": {"tested_on": "IP-10", "conditions": "BGERKB5 cells, 50 nmol/L, 48 hours, culture supernatant", "method": "Enzyme-linked immunosorbent assay (ELISA) of IP-10 can be carried out in the following manner.\nAs a control test, a control group without addition of a test compound was also prepared.\nMeasurement of the amount of IP-10 produced by the BGERKB5 cells was carried out using an immunoassay kit (BioSource International, Inc.). A calibration curve was prepared using the preparation attached to the kit, and the amount of IP-10 in the culture supernatant was measured."}, "TLR9": {"biological_target": "TLR9 (Homo sapiens, UniProt Q9NR96)", "sequence (Q9NR96 26-1032)": "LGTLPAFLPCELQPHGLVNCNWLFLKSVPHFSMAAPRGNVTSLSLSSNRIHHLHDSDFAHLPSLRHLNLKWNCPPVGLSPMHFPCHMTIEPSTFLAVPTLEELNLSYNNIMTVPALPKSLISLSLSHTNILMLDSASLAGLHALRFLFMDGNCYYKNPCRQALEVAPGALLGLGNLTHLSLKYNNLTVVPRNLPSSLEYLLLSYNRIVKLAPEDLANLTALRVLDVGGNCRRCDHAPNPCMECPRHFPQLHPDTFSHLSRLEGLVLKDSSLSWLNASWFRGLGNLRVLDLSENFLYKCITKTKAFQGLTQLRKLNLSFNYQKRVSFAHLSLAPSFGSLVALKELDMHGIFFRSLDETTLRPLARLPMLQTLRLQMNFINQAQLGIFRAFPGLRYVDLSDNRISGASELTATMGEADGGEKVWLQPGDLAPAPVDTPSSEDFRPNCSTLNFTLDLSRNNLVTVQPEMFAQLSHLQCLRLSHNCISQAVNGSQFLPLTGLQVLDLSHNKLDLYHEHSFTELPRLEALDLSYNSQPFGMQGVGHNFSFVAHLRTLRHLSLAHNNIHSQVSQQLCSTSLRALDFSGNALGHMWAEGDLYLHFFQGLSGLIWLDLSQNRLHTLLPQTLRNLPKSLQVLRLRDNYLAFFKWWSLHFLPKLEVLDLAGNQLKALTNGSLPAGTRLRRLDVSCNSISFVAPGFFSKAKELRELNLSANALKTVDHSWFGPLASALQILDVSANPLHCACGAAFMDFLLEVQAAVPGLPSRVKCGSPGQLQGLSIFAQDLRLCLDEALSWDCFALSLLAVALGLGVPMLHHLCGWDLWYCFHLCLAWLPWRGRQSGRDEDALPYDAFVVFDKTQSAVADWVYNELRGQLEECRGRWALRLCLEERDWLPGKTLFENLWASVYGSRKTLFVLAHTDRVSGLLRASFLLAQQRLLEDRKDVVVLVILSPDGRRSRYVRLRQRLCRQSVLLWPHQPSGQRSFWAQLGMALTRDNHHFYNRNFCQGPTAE", "conditions": "BGERKB5 cells without siRNA (Mock), 50 nmol/L, 5 hours", "quoted_text": "A knockdown test of TLR9 using siRNA in BGERKB5 cells can be carried out in the following manner.\nA BGERKB5 cell suspension (0.5 mL) having a concentration of 4×10^5 cells/mL obtained according to the method described in Test Example 1 was seeded into 6 wells of a 24-well plate (total cell number: 1.2×10^6 cells), followed by incubation in a CO2 incubator at 37° C. for 24 hours.\nThen, siRNA against TLR9 (Ambion, Inc., pre-designed siRNA, ID#6055, Cat. 16704, Lot. 047951si) was introduced in an amount of 100 pmol per well using lipofectamine 2000 (Invitrogen Corp.).\nTwenty-four hours after the siRNA introduction, the medium was replaced with a fresh one, followed by further incubation for 48 hours. The obtained cells were collected in a sterile tube and suspended in RPMI1640·ITPSG medium at a concentration of 1×10^6 cells/mL (TLR9 kd group). “Mock group” containing no siRNA was prepared in the same manner as in the preparation of “TLR9 kd group”. […]\nA 400-μL portion from each of the cell suspensions of the four groups (3 mL) was seeded in quadruplicate 100 μL aliquots into a 96-well plate, followed by incubation for 5 hours. Steady-Glo (Promega Corp.) (100 μL) was added and the luciferase activity (RLU) in each well was measured using Multilabel Counter ARVO (Perkin-Elmer Corp.)."}, "interleukin 12B (IL12B)": {"tested_on": "interleukin 12B (IL12B)", "conditions": "Mock cells, 50 nmol/L, 5 hours; corrected with GAPDH, ratio to solvent control (=1)", "method": "(§6) The remaining portion (2.6 mL) of each of the cell suspensions of the four groups used in Test Example 4 was incubated in a 15-mL sterile tube for 5 hours. The cells were collected, and the expression levels of genes of glyceraldehyde-3-phosphoate dehydrogenase (GAPDH), luciferase (NF-κB promoter-derived) (NF-κB-LUC), interleukin 12B (IL12B) and CD80 antigen (CD80) were measured by the quantitative RT-PCR method using SYBR-Green [see Bio Techniques, Vol. 22, p. 130-131, p. 134-138 (1997)].\n(§7) That is, the cell suspension of each group remaining in the above test was subjected to the following procedure.\n(§8) The cell suspension (1×10^6 cells/mL) of each group (2.6 mL: total cell number 2.6×10^6 cells) was centrifuged using himac CF702 centrifuge (Hitachi Koki Co., Ltd.) at 4° C. at 800 rpm for 10 minutes, and after the supernatant was removed using Pipetman, PBS (2 mL) was added. The obtained cell suspension was further centrifuged using himac CF702 centrifuge (Hitachi Koki Co., Ltd.) at 4° C. at 800 rpm for 10 minutes, and the supernatant was removed using Pipetman to obtain cells.\n(§9) Total RNA was extracted from the obtained cells using RNeasy Mini Kit (registered trademark: Qiagen, Inc.) according to the manual attached to the kit. By using the obtained total RNA as a template, cDNA was synthesized in the following manner using Super Script First-strand Synthesis System for RT-PCR (Invitrogen Corp.) according to the manual attached to the kit.\n(§10) Ten mmol/L dNTPs mixture solution (1.0 μL) and 0.5 μg/μL oligo(dT)12-18 primer (1.0 μL) were added to the […] (5 μg), and the mixture was diluted with an aqueous solution of diethyl pyrocarbonate (DEPC) to make a total volume of 10.0 μL. The obtained solution was heated at 65° C. for 5 minutes, then rapidly cooled on ice, and allowed to stand for more than one minute for denaturation."}, "[1]": {"tested_on": "glyceraldehyde-3-phosphate dehydrogenase (GAPDH)", "conditions": "Mock cells, 50 nmol/L, 5 hours; GAPDH is the internal standard regarded as 1; solvent control = 1", "method": "as §6, §7, §8, §9, §10"}, "[2]": {"tested_on": "luciferase (NF-κB promoter-derived) (NF-κB-LUC)", "conditions": "Mock cells, 50 nmol/L, 5 hours; corrected with GAPDH, ratio to solvent control (=1)", "method": "as §6, §7, §8, §9, §10"}, "CD80 antigen (CD80)": {"tested_on": "CD80 antigen (CD80)", "conditions": "Mock cells, 50 nmol/L, 5 hours; corrected with GAPDH, ratio to solvent control (=1)", "method": "as §6, §7, §8, §9, §10"}}, "data": [{"compound": "CC(=O)OCCC1OC(OP(=O)(O)OP(=O)(O)OCC2OC(n3cnc4c(N)ncnc43)C(O)C2O)C(OC(C)=O)C(OC(C)=O)C1OC(C)=O", "note": "[Compound 1, Adenosine=5′-(2,3,4,7-tetra-O-acetyl-6-deoxy-β-D-mannoheptopyranosyl)diphosphate]", "values": [{"measurement": "luciferase activity (RLU), activating effect on NF-κB", "setting": "NF-κB", "value": "enhancement of luciferase activity was confirmed"}]}, {"compound": "Nc1ncnc2c1ncn2C1OC(COP(=O)(O)OP(=O)(O)OC2OC(CCO)C(O)C(O)C2O)C(O)C1O", "note": "[Compound 2, Adenosine=5′-(6-deoxy-β-D-mannoheptopyranosyl)diphosphate]", "values": [{"measurement": "luciferase activity (RLU), activating effect on NF-κB", "setting": "NF-κB", "value": "enhancement of luciferase activity was confirmed"}]}, {"compound": "CC(=O)OCC(OC(C)=O)C1OC(OP(=O)(O)OP(=O)(O)OCC2OC(n3cnc4c(N)ncnc43)C(O)C2O)C(OC(C)=O)C(OC(C)=O)C1OC(C)=O", "note": "[Compound 10, Adenosine=5′-(2,3,4,6,7-penta-O-acetyl-L-glycero-β-D-mannoheptopyranosyl)diphosphate]", "values": [{"measurement": "luciferase activity (RLU), activating effect on NF-κB", "setting": "NF-κB", "value": "enhancement of luciferase activity was confirmed"}]}, {"compound": "Nc1ncnc2c1ncn2[C@@H]1O[C@H](COP(=O)(O)OP(=O)(O)O[C@@H]2OC([C@@H](O)CO)[C@@H](O)C(O)C2O)C(O)C1O", "note": "(stereo partly drawn) [Compound 12, Adenosine=5′-(L-glycero-β-D-mannopyranosyl)diphosphate]", "values": [{"measurement": "luciferase activity (RLU), activating effect on NF-κB", "setting": "NF-κB", "value": "enhancement of luciferase activity was confirmed"}]}, {"compound": "CC(=O)OC[C@@H](OC(C)=O)[C@H]1O[C@@H](OP(=O)(O)OP(=O)(O)OC[C@H]2O[C@@H](n3cnc4c(N)ncnc43)[C@H](O)[C@@H]2O)[C@@H](OC(C)=O)[C@@H](OC(C)=O)[C@@H]1OC(C)=O", "note": "[Compound 14, Adenosine=5′-(2,3,4,6,7-penta-O-acetyl-D-glycero-β-D-mannoheptopyranosyl)diphosphate]", "values": [{"measurement": "luciferase activity (RLU), activating effect on NF-κB", "setting": "NF-κB", "value": "enhancement of luciferase activity was confirmed"}]}, {"compound": "Nc1ncnc2c1ncn2[C@@H]1O[C@H](COP(=O)(O)OP(=O)(O)O[C@@H]2O[C@H]([C@H](O)CO)[C@@H](O)[C@H](O)[C@@H]2O)[C@@H](O)[C@H]1O", "note": "[Compound 16, Adenosine=5′-(D-glycero-β-D-mannoheptopyranosyl)diphosphate]", "values": [{"measurement": "luciferase activity (RLU), activating effect on NF-κB", "setting": "NF-κB", "value": "enhancement of luciferase activity was confirmed"}, {"measurement": "Positive cell ratio (%) CD40", "setting": "CD40", "value": 93.6, "unit": "%"}, {"measurement": "Positive cell ratio (%) CD80", "setting": "CD80", "value": 45.7, "unit": "%"}, {"measurement": "Positive cell ratio (%) CD86", "setting": "CD86", "value": 78.4, "unit": "%"}, {"measurement": "amount of IP-10 produced", "setting": "IP-10", "value": 1441, "unit": "pg/mL"}, {"measurement": "Luciferase activity (RLU) (mean ± standard error), Mock", "setting": "TLR9", "value": "7196.7 ± 88.8", "unit": "RLU"}, {"measurement": "relative mRNA expression level, IL12B, Mock", "setting": "interleukin 12B (IL12B)", "value": 1.4}, {"measurement": "relative mRNA expression level, GAPDH, Mock", "setting": "[1]", "value": 1.0}, {"measurement": "relative mRNA expression level, NF-κB-LUC, Mock", "setting": "[2]", "value": 59.7}, {"measurement": "relative mRNA expression level, CD80, Mock", "setting": "CD80 antigen (CD80)", "value": 127}]}, {"compound": "Adenosine=5′-(6-deoxy-β-D-mannoheptopyranosyl)-α, β-methylene diphosphate [Compound 30]", "values": [{"measurement": "luciferase activity (RLU), activating effect on NF-κB", "setting": "NF-κB", "value": "enhancement of luciferase activity was confirmed"}, {"measurement": "amount of IP-10 produced", "setting": "IP-10", "value": 821, "unit": "pg/mL"}]}]}
